# Like-named read-outs stand apart in the source and are kept apart here.
# Tests used:
# [1] = test system: E. coli; assay: Disk diffusion, urine isolates of BPH patients; settings: strains isolated after operative intervention
# [2] = test system: Shigella spp.; assay: Disk diffusion, stool isolates Tehran; type: cell-based; settings: 96 isolates
# [3] = test system: PRSP; assay: Broth microdilution; type: cell-based, Streptococcus pneumoniae
# [4] = test system: enterococci; assay: Disk diffusion and E-test, faecal isolates of cancer patients; type: cell-based, Enterococcus; settings: 38 strains; gentamycin: high level
# [5] = test system: H.influenzae; assay: Broth microdilution; type: cell-based, Haemophilus influenzae
# [6] = test system: Haemophilus influenzae; assay: Susceptibility testing; type: cell-based; settings: conjunctival isolates 2000–2004
# [7] = test system: Pseudomonas putida clinical isolates; assay: Agar dilution MIC; type: cell-based
# [8] = test system: H. influenzae; type: cell-based, Haemophilus influenzae
# [9] = test system: C. jejuni ATCC 33560; assay: VetMIC broth microdilution, QC strain; type: cell-based; settings: Campylobacter jejuni, ATCC33560, read-out: QC limits (MIC)
# [10] = test system: H. influenzae; assay: Disk diffusion, sputum isolates Athens 2001–2004; type: cell-based, Haemophilus influenzae
# [11] = test system: Escherichia coli O157:H7; assay: Kirby-Bauer susceptibility; type: cell-based; settings: 30 strains, 1990–2003
# [12] = test system: H. influenzae; assay: Disk diffusion; type: cell-based, Haemophilus influenzae; settings: 237 isolates
# [13] = test system: H. influenzae; assay: Broth microdilution; type: cell-based, Haemophilus influenzae; settings: 267 isolates
# [14] = test system: Salmonella serotype Enteritidis; assay: Disk diffusion, food isolates Spain; type: cell-based; settings: n = 96
# [15] = test system: E. faecalis; assay: Italian survey of severe infections 2003, MIC; type: cell-based, Enterococcus faecalis
# [16] = test system: H.influenzae; assay: PROTEKT Italy, NCCLS microdilution; type: cell-based, Haemophilus influenzae
# [17] = test system: M. catarrhalis; assay: PROTEKT Italy, NCCLS microdilution; type: cell-based, Moraxella catarrhalis
# [18] = test system: Salmonella, other 49 serotypes; assay: Disk diffusion, food isolates Spain; type: cell-based; settings: n = 115
# [19] = test system: E. faecalis; assay: E-test susceptibility; type: cell-based, Enterococcus faecalis
# [20] = test system: Staphylococcus coagulase negative (CNS); assay: Susceptibility testing; type: cell-based; settings: conjunctival isolates 2000–2004
# [21] = test system: Staphylococcus aureus; assay: Susceptibility testing; type: cell-based; settings: conjunctival isolates 2000–2004
# [22] = test system: H. influenzae; assay: MIC of invasive strains, Saint George Hospital 2001–2004; type: cell-based, Haemophilus influenzae; settings: n = 129
# [23] = test system: Moraxella spp.; assay: Disk diffusion; type: cell-based; settings: 35 isolates
# [24] = test system: intestinal Escherichia coli; assay: ampicillin resistance of intestinal isolates during treatment; parameters: species or system beagles; settings: dog, in vivo
# [25] = test system: ERSP; assay: Broth microdilution; type: cell-based, Streptococcus pneumoniae; settings: Streptococcus pneumoniae
# [26] = test system: S. pneumoniae; assay: Broth microdilution; type: cell-based, Streptococcus pneumoniae
# [27] = test system: Salmonella spp.; assay: Agar dilution susceptibility, gastroenteritis isolates Cuba; type: cell-based; settings: 34 strains, 2002
# [28] = test system: Escherichia coli; assay: Vitek 2 susceptibility, urine isolates of children; type: cell-based
# [29] = test system: Salmonella serotype Typhimurium; assay: Disk diffusion, food isolates Spain; type: cell-based; settings: n = 53
# [30] = test system: P. stuartii; assay: E-test MIC and mutant prevention concentration, qnr transconjugand and mutants; settings: Providencia stuartii
# [31] = test system: S. aureus; assay: NCCLS broth microdilution, SSTI isolates; type: cell-based; settings: Staphylococcus aureus
# [32] = test system: Enterobacteriaceae; assay: SMART 2003 Europe, microdilution; type: cell-based; settings: 1948 isolates
# [33] = test system: S. enterica serotype Typhimurium; assay: Susceptibility testing of CipR strains from children and exotic pets; type: cell-based; settings: Salmonella enterica
# [34] = test system: E. coli; assay: SMART 2003 Europe, microdilution; type: cell-based, Escherichia coli; settings: 1106 isolates
# [35] = test system: Pseudomonas aeruginosa (PA); assay: MIC; type: cell-based
# [36] = test system: S. pneumoniae (SPN); assay: NCCLS broth microdilution, fluoroquinolones 1999–2004; type: cell-based, Streptococcus pneumoniae; settings: Streptococcus pneumoniae, read-out: MIC90 during the six years, 1999–2004
# [37] = test system: nontyphoidal Salmonella; assay: Agar dilution, isolates from chickens 1998–2004; type: cell-based, Salmonella spp.; settings: Salmonella
# [38] = test system: S. typhimurium (strain SL1344); assay: Cell envelope proteome; type: cell-based, Salmonella typhimurium; settings: 31.2 ng/ml; control 296 ± 77; mean + 1 SD
# [39] = test system: P. aeruginosa strains from CF sputa; assay: O-serotyping; type: cell-based, Pseudomonas aeruginosa; settings: exposure to 1/2–1/16 MIC (ceftazidime) or 1/2–1/8 MIC (ciprofloxacin)
# [40] = test system: S. pneumoniae; assay: Broth microdilution; type: cell-based, Streptococcus pneumoniae; settings: 275 isolates
# [41] = test system: K. pneumoniae; assay: MIC; type: cell-based, Klebsiella pneumoniae
# [42] = test system: qnrA; assay: qnrA transcription in E. coli transconjugants after quinolone induction; type: cell-based, Escherichia coli; settings: 0.4 × MIC
# [43] = test system: Acinetobacter; assay: Disk diffusion; type: cell-based; settings: 37 isolates selected as resistant to beta-lactams
# [44] = test system: inducible Enterobacteriaceae; assay: SMART 2003, intraabdominal isolates; type: cell-based
# [45] = test system: Nocardia spp.; assay: Time-kill at peak-serum concentrations, seven strains; type: cell-based; settings: of seven strains; 24, 72 h
# [46] = test system: B.cepacia; assay: Italian survey of severe infections 2003, MIC; type: cell-based, Burkholderia cepacia
# [47] = test system: F. necrophorum; assay: E-test, 13 clinical isolates; type: cell-based, Fusobacterium necrophorum
# [48] = test system: Klebsiella; assay: SMART 2003 Europe, microdilution; type: cell-based, Klebsiella spp.; settings: 341 isolates
# [49] = test system: Gram-negative rods; assay: Microscan MIC, blood culture isolates; type: cell-based
# [50] = test system: PSA; settings: background statement, no reference given; cited from earlier work
# [51] = test system: Enterobacter spp; assay: E-test susceptibility; type: cell-based
# [52] = test system: E. coli; assay: E-test susceptibility; type: cell-based, Escherichia coli
# [53] = test system: K. oxytoca; assay: E-test susceptibility; type: cell-based, Klebsiella oxytoca
# [54] = test system: Nocardia spp.; assay: E-test on Mueller Hinton agar, 81 clinical isolates; type: cell-based; settings: Nocardia
# [55] = test system: P. aeruginosa; type: cell-based, Pseudomonas aeruginosa
# [56] = test system: Pseudomonas aeruginosa (PSA); assay: Vitek 2 susceptibility, urine isolates of children; type: cell-based; settings: both departments
# [57] = test system: K. pneumoniae; assay: E-test susceptibility; type: cell-based, Klebsiella pneumoniae
# [58] = test system: P.aeruginosa; assay: Italian survey of severe infections 2003, MIC; type: cell-based, Pseudomonas aeruginosa
# [59] = test system: A. baumannii; assay: Italian survey of severe infections 2003, MIC; type: cell-based, Acinetobacter baumannii
# [60] = test system: N. farcinica strain; assay: E-test on Mueller-Hinton agar; type: cell-based; settings: Nocardia farcinica
# [61] = test system: S. pneumoniae; assay: MIC of invasive strains, Saint George Hospital 2001–2004; type: cell-based, Streptococcus pneumoniae
# [62] = test system: viridans group streptococci (VGS); assay: MIC; type: cell-based
# [63] = NCCLS breakpoints (Amox/Clav 2/1 mcg/mL)
compound,measurement,setting,value
CC1(C)S[C@@H]2[C@H](NC(=O)[C@H](N)c3ccccc3)C(=O)N2[C@H]1C(=O)O [ampicillin],resistance,[1],93.1%
same,resistance,[2],100%
same,%Sus,[3]; [63],0.0%
same,MIC90,"[3]; Streptococcus pneumoniae, PRSP",8 µg/mL
same,resistant strains,[4],50%
same,MIC90,[5]; Haemophilus influenzae,> 16 µg/mL
same,%Sus,[5]; NCCLS,74.6%
same,resistant isolates,[6],9.5%
same,MIC,[7],> 128 µg/mL
same,resistant,[8],4.7%
same,MIC,[9],2 to 8 µg/mL
same,resistance rate,[10]; 2001–2002,10.9%
same,resistance rate,[10]; 2003–2004,23.1%
same,resistant strains,[11],13.3%
same,Susceptible isolates,[12],92%
same,resistant,[13],5.2%
same,resistance rate (NCCLS M100-S13),[14],8%
same,resistance,[15],0.4%
same,resistance,[16]; year 1,26.5%
same,resistance,[16]; year 2,20.6%
same,susceptibility rate,[17]; year 1,22.7%
same,susceptibility rate,[17]; year 2,18.9%
same,resistance rate (NCCLS M100-S13),[18],14%
same,Susceptibility,"[19]; ICU, SRGA breakpoints, tigecycline tentative ≤2 μg/ml",99/99%
same,Susceptibility,[19]; non-ICU,99/99%
same,resistant isolates,[20],79.5%
same,resistant isolates,[21],66.6%
same,resistant isolates,[22],60%
same,Susceptible isolates,[23],49%
same,resistant isolates,[23],51%
same,proportion of ampicillin-resistant isolates during treatment,[24],98%
same,MIC90,[25],8 µg/mL
same,%Sus,[26]; [63],0.0%
same,MIC90,[26]; Streptococcus pneumoniae,4 µg/mL
same,resistance,[27],44%
same,susceptibility rate,[28]; paediatric surgical unit (PSU),15%
same,susceptibility rate,[28]; paediatric units (PU),54%
same,resistance rate (NCCLS M100-S13),[29],62%
O=C(O)c1cn(C2CC2)c2cc(N3CCNCC3)c(F)cc2c1=O [ciprofloxacin],sensitive,[2],100%
same,MIC,"[30]; ATCC29914, P. stuartii ATCC 29914 RifR",0.03 µg/mL
same,MIC,"[30]; ATCC29914, mutants of ATCC 29914 RifR, SCV, median",3 µg/mL
same,MIC,[30]; TCPs 123 (qnr-positive transconjugand),0.5 µg/mL
same,MIC,"[30]; mutants of TCPs 123, SCV, median",> 32 µg/mL
same,MIC,"[30]; mutants of TCPs 123, normal colony size, median",6 µg/mL
same,MIC50,[31],0.25 µg/mL
same,per cent susceptible,[32],84%
same,intermediate susceptible,[8],2.4%
same,MIC,[33],≥ 16 µg/mL
same,per cent susceptible,[34],80%
same,isolates with MPC ≤ 2 μg/ml,[35],79%
same,MPC range,[35]; 10 billion organisms on agar,1 to 4 µg/mL
same,MIC range,[35]; patients P1 and P2,0.031 to 1 µg/mL
same,MIC90,[36],2 µg/mL
same,MIC90,[37],~0.25 µg/mL
same,number of proteins detected in 2D gels,[38],153 ± 36
same,change of agglutination type of nine monoagglutinable strains,[39],five out of nine strains
same,Susceptibility,[40],94.5%
same,susceptibility category,[41]; BSAC,resistant
same,increase of qnrA transcription over baseline,[42]; transconjugant from 1960,2.6 times
same,increase of qnrA transcription over baseline,[42]; transconjugant from N5,5.1 times
same,increase of qnrA transcription over baseline,[42]; transconjugant from UAB1,4.3 times
same,susceptibility rate,[28]; paediatric surgical unit (PSU),96%
same,susceptibility rate,[28]; paediatric units (PU),100%
C[C@@H](O)[C@H]1C(=O)N2C(C(=O)O)=C(SCCN=CN)C[C@H]12 [imipenem],resistant isolates,[43],0.0%
same,% susceptible,[44]; A/P (N = 200),99%
same,% susceptible,[44]; EU (N = 354),98%
same,% susceptible,[44]; LA (N=113),98%
same,% susceptible,[44]; NA (N = 163),98%
same,strains with bactericidal activity (≥3 log10 cfu/ml decrease),[45],4 strains
same,resistance,[46],71.4%
same,MIC range,[47],0.004 to 32 µg/mL
same,MIC50,[47]; Fusobacterium necrophorum,1.5 µg/mL
same,MIC90,[47]; Fusobacterium necrophorum,> 32 µg/mL
same,per cent susceptible,[48],99%
same,susceptible strains (n/N),[49],15/16
same,per cent susceptible,[32],>99%
same,MIC50,[50],1 µg/mL
same,Susceptible isolates,[51]; ICU,96%
same,Susceptible isolates,[51]; non ICU,98%
same,resistant,[8],0%
same,Susceptible isolates,"[52]; ICU, SRGA breakpoints, tigecycline tentative S ≤2 μg/ml",99%
same,Susceptible isolates,[52]; non ICU,100%
same,per cent susceptible,[34],100%
same,Susceptible isolates,[53]; ICU,100/100%
same,Susceptible isolates,[53]; non ICU,100/100%
same,MIC50,[54],0.5 µg/mL
same,MIC90,[54],2 µg/mL
same,resistant,[55],42%
same,Susceptible isolates,[56],74-100%
same,Susceptible isolates,[57]; ICU,100%
same,Susceptible isolates,[57]; non ICU,99%
same,resistance,[58],11.9%
same,resistance,[59],22.5%
same,MIC,[60],> 32 µg/mL
same,% S,[61],100%
same,%R,[61],0%
same,MIC,[41]; Klebsiella pneumoniae,1 to 8 µg/mL
same,MIC50,[62],0.015 µg/mL
same,MIC90,[62],0.12 µg/mL

# Reference: article PMC7129073 (Clinical Microbiology and Infection, 2015)
